Measured values reported in ChEMBL document CHEMBL1201862, “PubChem BioAssay data set” (2004).
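Step 1: Grow cells in 96-well plates. Step 2: Expose to compound for 48 hours at 5 concentrations. Step 3: Interpolate endpoints linearly; if unreached, use highest concentration. GI50 = concentration required for 50% inhibition of growth.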 Calls of active or inactive are those of the source. Cut-off read from the data, not from the text of the source: active = GI50 up to about 1.1 µM and inactive = higher.

Legend:
Test in all cases: DTP human tumour cell line panel, 48 h
IGROV-1 = tested on: IGROV-1
HCT-15 = tested on: HCT-15
SF-539 = tested on: SF-539
MOLT-4 = tested on: MOLT-4
PC-3 = tested on: PC-3
NCI-H23 = tested on: NCI-H23
SF-295 = tested on: SF-295
HL-60 = tested on: HL-60
HCC 2998 = tested on: HCC 2998
UO-31 = tested on: UO-31
OVCAR-8 = tested on: OVCAR-8
Malme-3M = tested on: Malme-3M
SK-MEL-2 = tested on: SK-MEL-2
SK-OV-3 = tested on: SK-OV-3
NCI-H460 = tested on: NCI-H460
OVCAR-3 = tested on: OVCAR-3
K562 = tested on: K562
RXF 393 = tested on: RXF 393
BT-549 = tested on: BT-549
HCT-116 = tested on: HCT-116

Row | Structure (SMILES) | GI50 (IGROV-1) | GI50 (HCT-15) | GI50 (SF-539) | GI50 (MOLT-4) | GI50 (PC-3) | GI50 (NCI-H23) | GI50 (SF-295) | GI50 (HL-60) | GI50 (HCC 2998) | GI50 (UO-31) | GI50 (OVCAR-8) | GI50 (Malme-3M) | GI50 (SK-MEL-2) | GI50 (SK-OV-3) | GI50 (NCI-H460) | GI50 (OVCAR-3) | GI50 (K562) | GI50 (RXF 393) | GI50 (BT-549) | GI50 (HCT-116)
2 | c1ccc2c[n+](CCCCCCCCCC[n+]3ccc4ccccc4c3)ccc2c1 | > 10 µM (inactive) | > 10 µM | > 10 µM (inactive) | – | > 7.52 µM (inactive) | 1 µM (active) | 3.59 µM (inactive) | > 10 µM (inactive) | > 10 µM (inactive) | > 10 µM (inactive) | > 10 µM (inactive) | > 10 µM (inactive) | > 10 µM (inactive) | > 10 µM (inactive) | > 10 µM (inactive) | > 4.35 µM (inactive) | 2.04 µM (inactive) | > 10 µM (inactive) | 2.11 µM (inactive) | > 10 µM (inactive)
3 | COc1cc([C@@H]2c3cc4c(cc3[C@@H](OC3OC5COC(C)OC5C(O)C3O)[C@H]3COC(=O)[C@H]23)OCO4)cc(OC)c1O (some centres undefined) | 31.4 µM (inactive) | 17.6 µM | 3.27 µM (inactive) | 0.547 µM (active) | 0.661 µM (active) | 6.01 µM (inactive) | 5.92 µM (inactive) | 0.807 µM (active) | 9.02 µM (inactive) | 42.3 µM (inactive) | 11.3 µM (inactive) | 9.44 µM (inactive) | 21.7 µM (inactive) | 17.2 µM (inactive) | 0.533 µM (active) | 39.4 µM (inactive) | – | 14.9 µM (inactive) | 2.4 µM (inactive) | 13.6 µM (inactive)
4 | CC(C)C1=C(Cc2ccccc2)C(=O)O/C1=C\c1cc(Cl)c(O)c(Cl)c1 | 19.4 µM (inactive) | 18.2 µM | 21.5 µM (inactive) | 21.2 µM (inactive) | 16.9 µM (inactive) | 13.8 µM (inactive) | 16 µM (inactive) | 16.3 µM (inactive) | 18.6 µM (inactive) | 14.1 µM (inactive) | 20.5 µM (inactive) | 16.7 µM (inactive) | – | 19.2 µM (inactive) | 18.2 µM (inactive) | 14.2 µM (inactive) | 17.4 µM (inactive) | 16.4 µM (inactive) | > 10 µM (inactive) | 18.2 µM (inactive)
5 | Oc1nc2c(c(-c3ccc(Br)cc3)n1)COC/C2=C\c1ccc(Br)cc1 | > 50 µM (inactive) | > 50 µM | > 50 µM (inactive) | > 50 µM (inactive) | > 50 µM (inactive) | > 50 µM (inactive) | > 50 µM (inactive) | > 50 µM (inactive) | > 50 µM (inactive) | > 50 µM (inactive) | > 50 µM (inactive) | > 50 µM (inactive) | > 50 µM (inactive) | > 50 µM (inactive) | > 50 µM (inactive) | > 50 µM (inactive) | > 50 µM (inactive) | > 50 µM (inactive) | > 50 µM (inactive) | > 50 µM (inactive)
6 | Cc1nn(C(=O)c2ccc(Cl)cc2)c2c1C(c1ccc(O)cc1)SC(=N)N2 (centres undefined) | > 10 µM (inactive) | > 10 µM | > 10 µM (inactive) | > 10 µM (inactive) | > 10 µM (inactive) | > 10 µM (inactive) | > 10 µM (inactive) | > 10 µM (inactive) | > 10 µM (inactive) | – | > 10 µM (inactive) | > 10 µM (inactive) | > 10 µM (inactive) | > 10 µM (inactive) | > 10 µM (inactive) | > 10 µM (inactive) | > 10 µM (inactive) | > 10 µM (inactive) | > 10 µM (inactive) | > 10 µM (inactive)
7 | O=C(Cc1nc2ccc(C(=O)c3ccccc3)cc2nc1O)C(=O)Nc1ccccc1[N+](=O)[O-] | 40.8 µM (inactive) | 46.3 µM | > 100 µM (inactive) | – | 51.1 µM (inactive) | 42.2 µM (inactive) | 48.6 µM (inactive) | 40.3 µM (inactive) | 37.2 µM (inactive) | 40 µM (inactive) | 33.5 µM (inactive) | 80.9 µM (inactive) | 91.2 µM (inactive) | > 100 µM (inactive) | 53.6 µM (inactive) | > 100 µM (inactive) | 30.1 µM (inactive) | 53.8 µM (inactive) | 58.9 µM (inactive) | 57 µM (inactive)
8 | CC(=O)OC12c3ccccc3C(c3ccccc31)C1C(=O)N(Nc3ccccc3)C(=O)C12 (centres undefined) | > 100 µM (inactive) | > 100 µM | > 100 µM (inactive) | > 100 µM (inactive) | > 100 µM (inactive) | > 100 µM (inactive) | > 100 µM (inactive) | > 100 µM (inactive) | > 100 µM (inactive) | > 100 µM (inactive) | > 100 µM (inactive) | > 100 µM (inactive) | – | > 100 µM (inactive) | > 100 µM (inactive) | > 100 µM (inactive) | > 100 µM (inactive) | > 100 µM (inactive) | > 100 µM (inactive) | > 100 µM (inactive)
9 | COc1ccc(/C=C(\C#N)c2ccccn2)cc1OC | 51.2 µM (inactive) | 32.2 µM | 31.9 µM (inactive) | 57.4 µM (inactive) | 22.8 µM (inactive) | 43.7 µM (inactive) | 26.8 µM (inactive) | 27.1 µM (inactive) | 65.2 µM (inactive) | 29.8 µM (inactive) | > 100 µM (inactive) | 46.8 µM (inactive) | 51.2 µM (inactive) | 29.8 µM (inactive) | 34.3 µM (inactive) | 86.1 µM (inactive) | 85.5 µM (inactive) | 23.7 µM (inactive) | 18.6 µM (inactive) | 31.7 µM (inactive)
10 | O=c1ccn(C/C=C/c2ccccc2)c(=S)n1C/C=C/c1ccccc1 | > 100 µM (inactive) | > 100 µM | – | 50.4 µM (inactive) | 56.4 µM (inactive) | 33.3 µM (inactive) | > 100 µM (inactive) | 13.8 µM (inactive) | 50.7 µM (inactive) | 76 µM (inactive) | > 100 µM (inactive) | 89.1 µM (inactive) | > 100 µM (inactive) | > 100 µM (inactive) | 80 µM (inactive) | > 100 µM (inactive) | 15.8 µM (inactive) | 9.75 µM (inactive) | 68.2 µM (inactive) | 44.6 µM (inactive)
11 | Cc1c(C)c2c(c(N)c1C#N)C(=O)N(CCc1ccccc1)C2=O | > 100 µM (inactive) | > 100 µM | > 100 µM (inactive) | 72.6 µM (inactive) | > 100 µM (inactive) | – | > 100 µM (inactive) | 29.2 µM (inactive) | > 100 µM (inactive) | > 100 µM (inactive) | > 100 µM (inactive) | > 100 µM (inactive) | > 100 µM (inactive) | – | > 100 µM (inactive) | > 100 µM (inactive) | > 100 µM (inactive) | > 100 µM (inactive) | > 100 µM (inactive) | > 100 µM (inactive)
12 | CC(=O)OC[C@H]1On2nnnc2[C@H](OC(C)=O)[C@@H](OC(C)=O)[C@@H]1OC(C)=O | > 100 µM (inactive) | > 100 µM | > 100 µM (inactive) | > 100 µM (inactive) | > 100 µM (inactive) | > 100 µM (inactive) | > 100 µM (inactive) | > 100 µM (inactive) | > 100 µM (inactive) | > 100 µM (inactive) | > 100 µM (inactive) | > 100 µM (inactive) | > 100 µM (inactive) | > 100 µM (inactive) | > 100 µM (inactive) | > 100 µM (inactive) | > 100 µM (inactive) | > 100 µM (inactive) | > 100 µM (inactive) | > 100 µM (inactive)
13 | Cc1n[nH]c(=O)c2cc(-c3ccccc3)[nH]c12 | 70.6 µM (inactive) | 54.2 µM | > 100 µM (inactive) | 17.6 µM (inactive) | 34.5 µM (inactive) | 84.1 µM (inactive) | 35.8 µM (inactive) | 54 µM (inactive) | 44.3 µM (inactive) | 49.3 µM (inactive) | 72.3 µM (inactive) | 64.1 µM (inactive) | 31 µM (inactive) | > 100 µM (inactive) | 48 µM (inactive) | 54.1 µM (inactive) | 38.6 µM (inactive) | > 100 µM (inactive) | 91.4 µM (inactive) | 52.6 µM (inactive)
14 | COc1ccc2c(-c3csc(-c4c[nH]c5ccccc45)n3)c[nH]c2c1 | 5.58 µM (inactive) | 1.45 µM | 5.73 µM (inactive) | 3.86 µM (inactive) | 4.7 µM (inactive) | 11.6 µM (inactive) | 9.64 µM (inactive) | 4.66 µM (inactive) | 4.03 µM (inactive) | 5.9 µM (inactive) | 7.85 µM (inactive) | 4.95 µM (inactive) | 14.5 µM (inactive) | 17.7 µM (inactive) | 2.29 µM (inactive) | 13.9 µM (inactive) | 3.44 µM (inactive) | 5.01 µM (inactive) | 11.8 µM (inactive) | 3.68 µM (inactive)
15 | O=C1/C(=C2\SCC(=O)N2c2ccccc2)SC(=S)N1c1ccccc1 | 17.1 µM (inactive) | 43 µM | 26.4 µM (inactive) | 17.7 µM (inactive) | 28.6 µM (inactive) | 72.6 µM (inactive) | 28.1 µM (inactive) | 78.5 µM (inactive) | 28.2 µM (inactive) | – | 41.4 µM (inactive) | 38.2 µM (inactive) | 27.3 µM (inactive) | 23.6 µM (inactive) | 39.1 µM (inactive) | 27.8 µM (inactive) | 36.1 µM (inactive) | 34.4 µM (inactive) | 2.82 µM (inactive) | 46.3 µM (inactive)
